Source: ChEMBL document CHEMBL1201862, “PubChem BioAssay data set” (2004)
Activity calls are given as the source filed them. For most assays here, no stated cut-off is given here; in the data, actives have a measured EC50 and inactives only a lower limit.

What was measured:
BJ [1] = experiment: cytotoxicity toward BJ-TERT fibroblasts, dose response, cell-based, RAS-independent, luminescence (AID 1933); assay type: functional; conditions: Homo sapiens
BJ [2] = experiment: cells; assay type: functional, cell-based; conditions: Homo sapiens
BJ [3] = experiment: cytotoxicity toward BJ-TERT-LT-ST fibroblasts, dose response, cell-based, RAS-independent, luminescence (AID 1935); assay type: functional; conditions: Homo sapiens;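 further: BJ fibroblasts immortalized with TERT plus LT and ST oncogenes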
[4] = cytotoxicity toward DRD oncogenic fibroblasts, dose response, cell-based, non-viral oncogenic, luminescence (AID 1934); assay type: functional; conditions: Homo sapiens
[5] = inhibitors of firefly luciferase expression or activity, dose response, H4 neuroglioma cells, luminescence (AID 1990); assay type: functional, cell-based
[6] = Luminescence Cell-Based Dose Response HTS to Identify Inhibitors of 5'UTR Stem-Loop Driven Prion Protein mRNA Translation in H4 Neuroglioblastoma Cells. [Related pubchem assays: 1827 (Project Summary), 1813 (Primary HTS)]; assay type: functional
[7] = inhibitors of SNCA 5'UTR-driven reporter translation, confirmation, H4 neuroglioma cells, luminescence (AID 1988); assay type: functional, cell-based
[8] = cytotoxicity in HEK-293T cells, dose response, cytotoxicity control for TCR NF-kB inhibitor project, luminescence, T-cell screen hits (AID 489026); assay type: functional, cell-based;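 further: cells exposed to compound about 14 hours before the viability readout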
Paired box protein Pax-8 = Paired box protein Pax-8 (Homo sapiens, UniProt Q06710); experiment: inhibitors of PAX8-driven TPO luciferase reporter, dose response, RMG-I cells, cherry-pick (AID 687027); assay type: functional, cell-based;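 further: luciferase reporter driven by Pax8 target thyroperoxidase promoter measured by SteadyGlo luminescence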
[9] = biological target: T1, Rac GTPase-activating protein 1 (Homo sapiens, UniProt Q9H0H5); experiment: MgcRacGAP GTPase-activating activity inhibitors, confirmation, biochemical, ADP Hunter fluorescence, primary and confirmatory (AID 624330); assay type: functional
T1 sequence (Q9H0H5 whole entry): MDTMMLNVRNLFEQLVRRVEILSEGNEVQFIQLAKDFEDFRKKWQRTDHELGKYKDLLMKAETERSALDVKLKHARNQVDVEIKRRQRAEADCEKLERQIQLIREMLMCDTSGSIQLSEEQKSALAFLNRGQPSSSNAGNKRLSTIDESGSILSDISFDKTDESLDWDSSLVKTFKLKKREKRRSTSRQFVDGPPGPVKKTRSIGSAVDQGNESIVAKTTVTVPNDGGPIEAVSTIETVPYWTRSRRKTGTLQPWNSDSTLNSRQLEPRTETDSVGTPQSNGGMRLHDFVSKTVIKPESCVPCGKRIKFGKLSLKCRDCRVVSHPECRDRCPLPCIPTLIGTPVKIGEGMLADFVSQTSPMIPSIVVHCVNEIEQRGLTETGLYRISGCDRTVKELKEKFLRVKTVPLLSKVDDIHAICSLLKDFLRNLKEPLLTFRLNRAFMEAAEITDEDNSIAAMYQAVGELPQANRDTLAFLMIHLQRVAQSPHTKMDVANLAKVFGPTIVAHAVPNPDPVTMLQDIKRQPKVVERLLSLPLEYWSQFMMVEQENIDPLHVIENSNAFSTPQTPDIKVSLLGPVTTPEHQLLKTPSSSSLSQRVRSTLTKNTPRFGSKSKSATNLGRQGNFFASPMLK

[10] = biological target: T2, Histone-lysine N-methyltransferase NSD2 (Homo sapiens, UniProt O96028); assay type: biochemical
T2 sequence (O96028 whole entry): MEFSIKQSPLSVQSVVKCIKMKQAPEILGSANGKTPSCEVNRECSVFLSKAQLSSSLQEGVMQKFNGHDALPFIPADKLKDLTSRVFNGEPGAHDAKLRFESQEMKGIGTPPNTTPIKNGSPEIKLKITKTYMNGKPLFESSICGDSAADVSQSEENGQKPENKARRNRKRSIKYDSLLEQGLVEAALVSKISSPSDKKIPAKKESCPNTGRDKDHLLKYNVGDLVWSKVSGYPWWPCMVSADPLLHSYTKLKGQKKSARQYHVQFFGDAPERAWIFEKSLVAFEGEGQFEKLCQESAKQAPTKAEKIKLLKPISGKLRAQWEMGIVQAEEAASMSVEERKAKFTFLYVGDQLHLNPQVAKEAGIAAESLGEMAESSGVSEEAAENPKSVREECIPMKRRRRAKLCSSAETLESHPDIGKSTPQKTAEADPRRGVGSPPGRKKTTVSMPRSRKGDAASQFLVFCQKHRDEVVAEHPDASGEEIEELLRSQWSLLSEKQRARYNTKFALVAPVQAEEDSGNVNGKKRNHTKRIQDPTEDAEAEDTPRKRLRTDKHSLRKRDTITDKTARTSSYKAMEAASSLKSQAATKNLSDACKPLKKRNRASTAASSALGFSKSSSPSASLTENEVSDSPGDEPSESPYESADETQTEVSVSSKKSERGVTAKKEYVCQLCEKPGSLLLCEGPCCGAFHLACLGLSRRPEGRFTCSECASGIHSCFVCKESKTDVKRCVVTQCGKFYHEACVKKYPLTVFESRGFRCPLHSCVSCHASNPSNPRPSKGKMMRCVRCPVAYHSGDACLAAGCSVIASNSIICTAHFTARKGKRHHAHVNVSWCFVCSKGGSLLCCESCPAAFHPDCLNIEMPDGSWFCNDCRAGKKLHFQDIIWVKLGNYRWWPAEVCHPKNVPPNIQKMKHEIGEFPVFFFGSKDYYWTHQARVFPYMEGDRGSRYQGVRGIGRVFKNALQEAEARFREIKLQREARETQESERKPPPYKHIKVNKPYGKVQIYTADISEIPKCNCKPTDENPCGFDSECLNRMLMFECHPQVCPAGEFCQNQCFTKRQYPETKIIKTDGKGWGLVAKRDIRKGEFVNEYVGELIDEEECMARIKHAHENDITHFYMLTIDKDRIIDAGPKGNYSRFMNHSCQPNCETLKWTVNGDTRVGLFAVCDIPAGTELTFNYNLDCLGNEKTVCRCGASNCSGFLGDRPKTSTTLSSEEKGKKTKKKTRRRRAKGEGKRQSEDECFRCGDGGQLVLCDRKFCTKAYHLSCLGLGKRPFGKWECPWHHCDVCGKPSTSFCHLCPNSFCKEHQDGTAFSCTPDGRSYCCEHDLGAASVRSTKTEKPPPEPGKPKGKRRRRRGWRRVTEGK

[11] = biological target: T3, RNA-binding protein pos-1 (Caenorhabditis elegans, UniProt G5EF15); experiment: inhibitors of POS-1/mex-3 RNA binding, dose response, biochemical, fluorescence polarization (AID 1964);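 further: purified POS-1 fused to maltose binding protein made in E. coli; potency of compounds blocking POS-1 binding to fluorescent RNA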
T3 sequence (G5EF15 whole entry): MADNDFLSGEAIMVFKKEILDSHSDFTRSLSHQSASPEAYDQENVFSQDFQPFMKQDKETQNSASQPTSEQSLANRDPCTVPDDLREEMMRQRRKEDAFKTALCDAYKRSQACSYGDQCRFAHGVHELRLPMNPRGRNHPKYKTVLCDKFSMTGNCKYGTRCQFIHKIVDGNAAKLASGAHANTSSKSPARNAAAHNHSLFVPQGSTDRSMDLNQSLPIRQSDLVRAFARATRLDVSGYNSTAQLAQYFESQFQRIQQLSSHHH

[12] = biological target: T4, Zinc finger protein mex-5 (Caenorhabditis elegans, UniProt Q9XUB2); experiment: MEX-5/TCR-2 RNA interaction inhibitors, dose response, biochemical, C. elegans, fluorescence polarization (AID 1960)
T4 sequence (Q9XUB2 whole entry): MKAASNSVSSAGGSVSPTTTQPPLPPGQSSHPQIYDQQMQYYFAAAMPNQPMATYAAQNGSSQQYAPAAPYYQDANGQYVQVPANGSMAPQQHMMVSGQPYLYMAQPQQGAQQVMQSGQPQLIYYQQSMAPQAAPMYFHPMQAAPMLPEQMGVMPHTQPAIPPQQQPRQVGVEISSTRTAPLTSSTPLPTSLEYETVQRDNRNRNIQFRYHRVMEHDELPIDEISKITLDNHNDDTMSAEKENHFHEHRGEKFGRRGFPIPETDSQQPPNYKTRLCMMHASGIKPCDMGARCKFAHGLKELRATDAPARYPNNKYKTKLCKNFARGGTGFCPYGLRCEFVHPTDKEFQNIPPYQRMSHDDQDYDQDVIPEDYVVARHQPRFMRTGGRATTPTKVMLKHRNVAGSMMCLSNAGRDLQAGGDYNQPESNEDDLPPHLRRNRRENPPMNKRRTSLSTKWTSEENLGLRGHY

[13] = biological target: T5, Heat shock factor protein 1 (Mus musculus, UniProt P38532); experiment: inhibition of MG132-induced HSE-luciferase signal, confirmation, cell-based, NIH3T3, luminescence, dose retest (AID 2382); assay type: functional;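 further: NIH3T3 fibroblasts with HSF1-driven luciferase reporter stressed by proteasome inhibitor MG132; luminescence from HSF1-driven luciferase expression after 8 hours of MG132 stress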
T5 sequence (P38532 whole entry): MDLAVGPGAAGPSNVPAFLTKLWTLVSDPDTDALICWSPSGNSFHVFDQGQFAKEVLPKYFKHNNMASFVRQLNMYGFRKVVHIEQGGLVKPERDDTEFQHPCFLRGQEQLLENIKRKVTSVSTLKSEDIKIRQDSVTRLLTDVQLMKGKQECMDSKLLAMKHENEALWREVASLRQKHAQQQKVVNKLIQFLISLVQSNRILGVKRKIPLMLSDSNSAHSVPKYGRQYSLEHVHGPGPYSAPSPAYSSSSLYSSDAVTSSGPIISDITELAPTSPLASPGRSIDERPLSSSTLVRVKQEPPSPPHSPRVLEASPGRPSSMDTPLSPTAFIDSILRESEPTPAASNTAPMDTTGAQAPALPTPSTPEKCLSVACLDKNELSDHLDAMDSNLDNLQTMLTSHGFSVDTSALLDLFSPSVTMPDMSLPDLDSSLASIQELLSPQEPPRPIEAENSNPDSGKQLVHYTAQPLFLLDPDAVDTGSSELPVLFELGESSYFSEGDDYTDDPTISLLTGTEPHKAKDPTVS

Fatty acid synthase [14] = biological target: T6, Fatty acid synthase (Homo sapiens, UniProt P49327); experiment: FAS thioesterase domain inhibitors, dose response, biochemical, endpoint fluorescence intensity, uHTS hits (AID 624327); assay type: functional;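 further: fluorescence from hydrolysis of an O-methyl fluorescein acyl ester substrate by the enzyme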
Fatty acid synthase [15] = biological target: T6, Fatty acid synthase; experiment: FAS thioesterase domain inhibitors, dose response, biochemical, kinetic fluorescence intensity (AID 624326); assay type: functional;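 further: rate of fluorescence rise from hydrolysis of a fluorogenic O-methyl fluorescein ester substrate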
cells [16] = assay type: functional, cell-based
[17] = biological target: Luciferin 4-monooxygenase (Photinus pyralis, UniProt P08659); experiment: firefly luciferase enzyme inhibitors, dose response, biochemical, luminescence (AID 1891)
[18] = Luminescence Cell-Based Dose Confirmation HTS to Identify Inhibitors of Platelet Dense Granule Release. [Related pubchem assays: 1663 (Primary HTS), 1678 (Summary of Project)]; assay type: functional
cells [19] = assay type: functional, cell-based; remark: listed apart in the source

T6 sequence (P49327 whole entry, the tested form may be a part): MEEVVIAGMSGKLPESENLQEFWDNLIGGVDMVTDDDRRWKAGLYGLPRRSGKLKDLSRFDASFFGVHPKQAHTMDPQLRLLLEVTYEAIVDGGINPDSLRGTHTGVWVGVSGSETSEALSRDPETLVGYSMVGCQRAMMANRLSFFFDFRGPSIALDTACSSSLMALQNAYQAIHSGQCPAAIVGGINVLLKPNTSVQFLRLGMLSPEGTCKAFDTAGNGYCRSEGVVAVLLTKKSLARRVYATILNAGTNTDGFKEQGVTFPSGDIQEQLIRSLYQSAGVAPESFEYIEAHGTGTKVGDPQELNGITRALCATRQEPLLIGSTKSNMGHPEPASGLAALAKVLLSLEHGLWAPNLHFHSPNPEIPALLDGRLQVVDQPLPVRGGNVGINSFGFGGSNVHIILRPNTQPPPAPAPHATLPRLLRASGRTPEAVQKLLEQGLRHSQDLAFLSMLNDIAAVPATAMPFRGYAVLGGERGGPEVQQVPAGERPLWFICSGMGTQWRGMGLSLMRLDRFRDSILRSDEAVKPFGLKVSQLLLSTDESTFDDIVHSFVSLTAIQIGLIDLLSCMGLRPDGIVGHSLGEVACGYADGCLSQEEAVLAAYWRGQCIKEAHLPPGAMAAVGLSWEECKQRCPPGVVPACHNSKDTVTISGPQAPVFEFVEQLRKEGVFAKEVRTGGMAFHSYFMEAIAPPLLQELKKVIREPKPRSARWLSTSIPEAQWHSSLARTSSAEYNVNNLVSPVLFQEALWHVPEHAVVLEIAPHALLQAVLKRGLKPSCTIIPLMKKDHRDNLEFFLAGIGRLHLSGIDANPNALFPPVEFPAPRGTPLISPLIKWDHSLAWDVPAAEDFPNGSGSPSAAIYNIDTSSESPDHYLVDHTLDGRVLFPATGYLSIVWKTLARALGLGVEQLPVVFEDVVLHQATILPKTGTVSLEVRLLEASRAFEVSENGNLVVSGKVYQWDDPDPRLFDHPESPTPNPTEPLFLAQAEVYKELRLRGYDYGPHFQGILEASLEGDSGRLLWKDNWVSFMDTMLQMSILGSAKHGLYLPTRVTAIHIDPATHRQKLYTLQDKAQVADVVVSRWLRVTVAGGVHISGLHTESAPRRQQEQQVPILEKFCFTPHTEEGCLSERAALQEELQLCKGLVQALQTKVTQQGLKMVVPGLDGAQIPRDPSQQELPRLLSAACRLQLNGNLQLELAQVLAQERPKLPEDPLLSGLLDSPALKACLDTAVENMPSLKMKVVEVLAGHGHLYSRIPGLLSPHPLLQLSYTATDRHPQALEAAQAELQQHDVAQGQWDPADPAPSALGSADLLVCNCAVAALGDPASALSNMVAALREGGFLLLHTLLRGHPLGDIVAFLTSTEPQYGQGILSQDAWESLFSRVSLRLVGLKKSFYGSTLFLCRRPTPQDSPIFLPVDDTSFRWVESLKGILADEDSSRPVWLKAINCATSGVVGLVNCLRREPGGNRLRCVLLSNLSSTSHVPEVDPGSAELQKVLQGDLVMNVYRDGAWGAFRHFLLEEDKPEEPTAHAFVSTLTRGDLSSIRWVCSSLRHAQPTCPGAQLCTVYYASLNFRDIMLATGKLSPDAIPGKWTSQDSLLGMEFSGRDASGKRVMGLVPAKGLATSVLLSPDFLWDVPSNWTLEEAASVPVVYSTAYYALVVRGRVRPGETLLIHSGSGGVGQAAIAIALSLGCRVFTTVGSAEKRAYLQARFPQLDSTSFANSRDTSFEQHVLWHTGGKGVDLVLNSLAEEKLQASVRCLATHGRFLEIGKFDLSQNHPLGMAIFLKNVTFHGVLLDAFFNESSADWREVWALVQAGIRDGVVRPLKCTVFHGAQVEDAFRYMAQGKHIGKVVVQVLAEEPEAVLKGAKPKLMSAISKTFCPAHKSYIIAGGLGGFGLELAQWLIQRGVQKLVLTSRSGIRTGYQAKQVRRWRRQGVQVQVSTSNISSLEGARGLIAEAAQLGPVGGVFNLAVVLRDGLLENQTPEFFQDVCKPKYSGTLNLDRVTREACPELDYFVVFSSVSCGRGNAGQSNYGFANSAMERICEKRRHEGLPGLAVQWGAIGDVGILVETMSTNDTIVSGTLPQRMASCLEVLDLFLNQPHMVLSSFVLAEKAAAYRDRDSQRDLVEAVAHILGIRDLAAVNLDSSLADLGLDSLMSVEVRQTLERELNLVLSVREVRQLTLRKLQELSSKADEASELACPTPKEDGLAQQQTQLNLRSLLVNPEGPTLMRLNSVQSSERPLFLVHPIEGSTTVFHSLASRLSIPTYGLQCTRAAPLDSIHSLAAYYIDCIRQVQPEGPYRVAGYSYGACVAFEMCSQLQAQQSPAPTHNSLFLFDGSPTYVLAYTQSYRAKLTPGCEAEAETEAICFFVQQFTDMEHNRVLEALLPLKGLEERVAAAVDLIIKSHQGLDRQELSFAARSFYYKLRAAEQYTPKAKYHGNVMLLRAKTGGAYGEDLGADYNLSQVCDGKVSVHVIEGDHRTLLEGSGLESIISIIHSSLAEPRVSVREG
Sequence of Luciferin 4-monooxygenase (P08659 whole entry): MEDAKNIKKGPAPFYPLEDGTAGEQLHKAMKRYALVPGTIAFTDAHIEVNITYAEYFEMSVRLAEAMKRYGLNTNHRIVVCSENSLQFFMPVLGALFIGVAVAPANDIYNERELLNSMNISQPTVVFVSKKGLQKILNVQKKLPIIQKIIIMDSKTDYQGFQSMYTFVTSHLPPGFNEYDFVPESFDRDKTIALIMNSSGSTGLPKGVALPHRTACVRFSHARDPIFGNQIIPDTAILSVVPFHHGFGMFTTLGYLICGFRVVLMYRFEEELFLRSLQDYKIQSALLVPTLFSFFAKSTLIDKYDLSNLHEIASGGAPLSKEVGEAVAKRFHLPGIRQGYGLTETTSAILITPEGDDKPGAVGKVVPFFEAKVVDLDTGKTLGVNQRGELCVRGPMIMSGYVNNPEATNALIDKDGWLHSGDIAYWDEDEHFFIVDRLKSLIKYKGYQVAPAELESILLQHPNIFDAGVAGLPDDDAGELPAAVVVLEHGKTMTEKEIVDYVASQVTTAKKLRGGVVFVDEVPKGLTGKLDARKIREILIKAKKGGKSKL
Sequence of Paired box protein Pax-8 (Q06710 whole entry): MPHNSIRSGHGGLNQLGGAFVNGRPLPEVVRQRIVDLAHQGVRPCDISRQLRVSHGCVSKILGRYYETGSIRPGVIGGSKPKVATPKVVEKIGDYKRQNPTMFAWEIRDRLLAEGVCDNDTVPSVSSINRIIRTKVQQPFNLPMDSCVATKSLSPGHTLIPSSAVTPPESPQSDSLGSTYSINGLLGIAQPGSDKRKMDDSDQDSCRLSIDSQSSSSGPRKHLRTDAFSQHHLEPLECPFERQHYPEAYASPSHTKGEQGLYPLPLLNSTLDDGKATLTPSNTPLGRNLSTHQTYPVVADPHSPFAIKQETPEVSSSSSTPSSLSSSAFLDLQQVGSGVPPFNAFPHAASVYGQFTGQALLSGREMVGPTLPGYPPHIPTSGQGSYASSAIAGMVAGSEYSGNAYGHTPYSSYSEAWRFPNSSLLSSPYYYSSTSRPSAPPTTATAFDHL

SMILES	EC50 (BJ [1])	EC50 (BJ [2])	EC50 (BJ [3])	EC50 [4]	IC50 (Fatty acid synthase [14])	IC50 (Fatty acid synthase [15])	also measured
CC(=O)c1cccc(Nc2c3c(nc4ccccc24)CCC3)c1	2.21 µM (active)	30.6 µM (inconclusive)	1.11 µM (active)	0.898 µM (active)	–	–	–
Cc1ccc(C(=O)c2cc([N+](=O)[O-])ccc2N2CCCCC2)cc1	0.493 µM (inconclusive)	82.5 µM (inconclusive)	0.576 µM (inconclusive)	1.21 µM (active)	–	–	EC50 [5]: 0.129 µM (active); EC50 [6]: 0.303 µM (active); EC50 [7]: < 0.1 µM (active); IC50 [8]: > 80 µM (inactive); AC50 (Paired box protein Pax-8): 3.39 µM (active)
CCOc1ccccc1N1CCN(C/C=C/c2ccc(N(C)C)cc2)CC1	–	–	–	–	–	–	IC50 [9]: 75.8 µM (active); AC50 [10]: 15.5 µM (active)
CCCCC1=CC2=CC(=O)C(C)(O)C(=O)C2=CO1 (stereo unspecified)	–	–	–	–	–	–	EC50 [11]: 55.3 µM (active); EC50 [12]: 23.5 µM (active)
O=C(O)c1ccc(CN2C(=O)c3cccc4c([N+](=O)[O-])ccc(c34)C2=O)cc1	9.19 µM (active)	12.9 µM (active)	10.6 µM (inconclusive)	10.9 µM (inconclusive)	–	–	EC50 [13]: 6.53 µM (active)
O=C(CC1C[C@H](C(=O)N2CCOCC2)[C@@]2(CCC3CCCC3)c3[nH]c4ccccc4c3CCN2C1=O)NCCc1ccccn1 (stereo partly specified)	–	–	–	–	1.37 µM (active)	1.09 µM (active)	–
Cc1ccc(NC(=O)c2cc([N+](=O)[O-])ccc2N2CCCC2)cc1	–	–	–	–	8.09 µM (active)	5.53 µM (active)	–
CCOc1ccc(C(=O)COC(=O)c2cc([N+](=O)[O-])ccc2N2CCOCC2)cc1	–	–	–	–	6.76 µM (active)	5.81 µM (active)	–
C[C@H](CO)N1C[C@H](C)[C@@H](CN(C)Cc2ccc(Cl)c(Cl)c2)Oc2c(NS(=O)(=O)c3ccc(F)cc3)cccc2C1=O	–	–	–	–	11.9 µM (active)	13.2 µM (active)	–
Cn1c(N/N=C/c2cc3ccccc3nc2Cl)nc2ccccc21	6.15 µM (inconclusive)	2.58 µM (active)	> 150 µM (not active)	25.7 µM (active)	–	–	EC50 (cells [16]): > 350 µM (not active); EC50 [17]: 0.687 µM (active); EC50 [18]: 6.52 µM (active); EC50 (cells [19]): 7.59 µM (active)
C/C(=N/N=C/c1ccc(N(C)C)cc1)c1ccccc1	26.5 µM (active)	13.5 µM (active)	> 150 µM (not active)	17.1 µM (active)	–	–	EC50 [17]: 0.875 µM (active); EC50 [18]: 1.61 µM (active)
CC(C)(C)c1ccc(/C=N/NC(=S)NC2CCCCC2)cc1	–	–	–	–	12.7 µM (active)	15.4 µM (active)	–
Cc1cc(=O)n2c(n1)/C(=N\Nc1ccccc1)C(=O)N2	–	–	–	–	–	–	EC50 [11]: 0.374 µM (inconclusive); EC50 [13]: > 195 µM (not active)
O=C(N/N=C/c1ccc(Br)o1)/C(=C/c1ccc([N+](=O)[O-])cc1)NC(=O)c1ccccc1	–	–	–	–	9.86 µM (active)	10.8 µM (active)	–
O=C1c2cc(O)c(O)cc2OC(c2ccc(O)c(O)c2)C1O (stereo unspecified)	–	–	–	–	–	–	AC50 [10]: 12.9 µM (active)
